Laboratory results as given in BindingDB's records for patent US20230348426 (Bristol-Myers Squibb, 2023).

Assays:
[1] = target: T1, N-formyl peptide receptor 2 (Homo sapiens, UniProt P25090); assay: FPR2 and FPR1 Cyclic Adenosine Monophosphate (cAMP) Assays
T1 sequence (P25090 whole entry): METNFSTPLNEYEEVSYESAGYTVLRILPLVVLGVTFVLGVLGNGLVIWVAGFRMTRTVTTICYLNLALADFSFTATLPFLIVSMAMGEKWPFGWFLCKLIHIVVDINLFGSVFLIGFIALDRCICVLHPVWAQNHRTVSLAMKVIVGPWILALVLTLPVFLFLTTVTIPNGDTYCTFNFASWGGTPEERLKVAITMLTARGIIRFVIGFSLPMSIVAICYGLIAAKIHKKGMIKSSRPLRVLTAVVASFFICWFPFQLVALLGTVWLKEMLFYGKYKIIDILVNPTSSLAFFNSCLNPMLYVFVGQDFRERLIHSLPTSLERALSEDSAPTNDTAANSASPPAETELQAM
Method: (§1) A mixture of forskolin (5 M final for FPR2 or 10 M final for FPR1) and IBMX (200 M final) were added to 384-well Proxiplates (Perkin-Elmer) pre-dotted with test compounds in DMSO (1% final) at final concentrations in the range of 0.020 nM to 100 µM. Chinese Hamster Ovary cells (CHO) overexpressing human FPR1 or human FPR2 receptors were cultured in F-12 (Ham s) medium supplemented with 10% qualified FBS, 250 µg/ml zeocin and 300 µg/ml hygromycin (Life Technologies). Reactions were initiated by adding 2,000 human FPR2 cells per well or 4,000 human FPR1 cells per well in Dulbecco s PBS (with calcium and magnesium) (Life Technologies) supplemented with 0.1% BSA (Perkin-Elmer). The reaction mixtures were incubated for 30 min at room temperature. The level of intracellular cAMP was determined using the HTRF HiRange cAMP assay reagent kit (Cisbio) according to manufacturer s instruction. Solutions of cryptate conjugated anti-cAMP and d2 flurorophore-labelled cAMP were made in a supplied lysis buffer separately. Upon completion of the reaction, the cells were lysed with equal volume of the d2-cAMP solution and anti-cAMP solution. […] The potency and activity of a compound to inhibit cAMP production was then determined by fitting to a 4-parametric logistic equation from a plot of cAMP level versus compound concentrations.

fMet-Leu-Phe receptor = target: T2, fMet-Leu-Phe receptor (Homo sapiens, UniProt P21462); assay: as above
T2 sequence (P21462 whole entry): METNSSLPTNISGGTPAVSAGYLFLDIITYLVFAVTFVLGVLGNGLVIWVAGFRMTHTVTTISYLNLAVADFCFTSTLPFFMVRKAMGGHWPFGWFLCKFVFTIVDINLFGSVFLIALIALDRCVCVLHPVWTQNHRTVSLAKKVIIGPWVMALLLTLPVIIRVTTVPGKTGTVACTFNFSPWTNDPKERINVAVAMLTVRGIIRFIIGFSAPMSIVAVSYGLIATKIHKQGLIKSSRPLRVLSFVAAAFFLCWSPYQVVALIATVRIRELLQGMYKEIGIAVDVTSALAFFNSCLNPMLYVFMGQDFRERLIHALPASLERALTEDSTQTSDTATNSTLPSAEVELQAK
Method: as §1

| Structure (SMILES) | EC50 [1] [nM] | EC50 (fMet-Leu-Phe receptor) [nM] |
| --- | --- | --- |
| COc1cc(F)c([C@@H]2CN(c3nc(N4CCCS4(=O)=O)ccc3F)C(=O)[C@H]2NC(=O)c2ccc(OC(F)(F)F)cc2)c(F)c1 [US20230348426, Example 289] | 8.6 | 62 |
| COc1cc(F)c([C@@H]2CN(c3nc(N4CC(CO)OCC4=O)ccc3F)C(=O)[C@H]2NC(=O)c2ccc(OC(F)F)cc2)c(F)c1 (some centres not stated) [US20230348426, Example 331] | 13 | 5600 |
| COc1cc(F)c([C@@H]2CN(c3c(C)ccn(C4CCN(C)C4)c3=O)C(=O)[C@H]2NC(=O)c2ccc(Cl)cc2)c(F)c1 (some centres not stated) [US20230348426, Example 510] | 3.5 | 290 |
| COc1cc(C2CCN(C)CC2)nc(N2C(=O)[C@@H](NC(=O)c3ccc(Cl)cc3)[C@H](c3c(F)cc(OC)cc3F)[C@H]2C)c1 [US20230348426, Example 558] | 6.4 | 2000 |
| COc1cc(F)c([C@@H]2CN(c3c(C)ccn(C4CCS(=O)(=O)CC4)c3=O)C(=O)[C@H]2NC(=O)c2ccc(Cl)cc2)c(F)c1 [US20230348426, Example 625] | 1.9 | 12 |
| COc1cc(F)c([C@@H]2CN(c3c(C)ccn(CC(O)C4CC4)c3=O)C(=O)[C@H]2NC(=O)c2ccc(Cl)cc2)c(F)c1 (some centres not stated) [US20230348426, Example 684] | 7 | 5 |
